For 26 compounds, IC50 results are on record in patent US20070049593A1 (priority 2004, published 2007).

As a reminder, the pIC50 is the IC50 on a negative log10 scale, so that one unit is a factor of ten.

In the assay the target is T1, HCV polymerase (Hepatitis C virus genotype 1b, UniProt P26663).
T1 construct: a region encoding NS5B (J Virol 1991 March, 65(3), 1105-13, 544 amino acids after deletion of 47 amino acids on the C-terminal); 6xHis (C); made in house; host or cells: Escherichia coli
In words: biochemical. Further details: species or system HCV BK strain. The method in brief: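 Recombinant HCV BK-strain NS5B (C-terminal 47 aa deleted, His6-tagged, E. coli), 0.5 μg/ml, run with 5 μg/ml in vitro-transcribed RNA template (polyU/3′X), ATP/GTP/CTP 50 μM, UTP 2 μM plus [3H]UTP, pH 7.5, 25° C, 90 min. TCA-precipitated RNA counted by scintillation; IC50 from activity with vs without compound.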

Molecules are shown by their SMILES. pIC50: −log10 of the molar value. Counter-ions that a name gives are not always drawn.

T1 sequence (P26663 2420-2963): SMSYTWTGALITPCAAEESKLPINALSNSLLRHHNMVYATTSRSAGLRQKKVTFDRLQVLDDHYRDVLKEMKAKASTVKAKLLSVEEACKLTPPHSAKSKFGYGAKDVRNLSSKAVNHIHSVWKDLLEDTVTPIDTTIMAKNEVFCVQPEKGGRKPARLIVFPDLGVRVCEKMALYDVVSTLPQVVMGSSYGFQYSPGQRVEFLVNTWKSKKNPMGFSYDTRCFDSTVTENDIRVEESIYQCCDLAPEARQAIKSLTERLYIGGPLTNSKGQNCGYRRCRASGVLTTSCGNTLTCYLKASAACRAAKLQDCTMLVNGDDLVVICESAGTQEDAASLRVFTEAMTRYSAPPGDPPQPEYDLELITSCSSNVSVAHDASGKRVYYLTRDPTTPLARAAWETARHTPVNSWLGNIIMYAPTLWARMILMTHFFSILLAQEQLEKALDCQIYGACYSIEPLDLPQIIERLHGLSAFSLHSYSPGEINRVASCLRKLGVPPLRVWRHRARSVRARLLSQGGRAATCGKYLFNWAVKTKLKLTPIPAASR

As for `CN1CCn2c(c(C3CCCCC3)c3ccc(C(=O)O)cc32)-c2ccc(OCc3cc(S(C)(=O)=O)ccc3N3CCOCC3)cc21` [Example 1-103, 13-cyclohexyl-3-[5-methanesulfonyl-2-(morpholin-4-yl)benzyloxy]-5-methyl-6,7-dihydro-5H-benzo[5,6][1,4]diazepino[7,1-a]indole-10-carboxylic acid dihydrochloride], the pIC50 was over 7.00.

Consider `COC(=O)N1CCN(CCN2CCn3c(c(C4CCCCC4)c4ccc(C(=O)O)cc43)-c3ccccc32)CC1` [Example 1-104, 13-cyclohexyl-5-[2-(4-methoxycarbonylpiperazin-1-yl)ethyl]-6,7-dihydro-5H-benzo[5,6][1,4]diazepino[7,1-a]indole-10-carboxylic acid dihydrochloride], for which the pIC50 is over 7.00. As for `O=C(O)c1ccc2c(C3CCCCC3)c3n(c2c1)CCN(CCCOC1CCCCO1)c1ccccc1-3` (centres unmarked) [Example 1-105, 13-cyclohexyl-5-[3-(tetrahydropyran-2-yloxy)propyl]-6,7-dihydro-5H-benzo[5,6][1,4]diazepino[7,1-a]indole-10-carboxylic acid], the figure is over 7.00.

In turn, `O=C(O)c1ccc2c(C3CCCCC3)c3n(c2c1)CCN(CC(=O)N1CCCC(O)C1)c1ccccc1-3` (centres unmarked) [Example 1-106, 13-cyclohexyl-5-[2-(3-hydroxypiperidin-1-yl)-2-oxoethyl]-6,7-dihydro-5H-benzo[5,6][1,4]diazepino[7,1-a]indole-10-carboxylic acid monohydrochloride] showed a pIC50 of over 7.00.

In turn, `O=C(O)c1ccc2c(C3CCCCC3)c3n(c2c1)CCN(CCN1CCOCC1)c1cc(F)ccc1-3` [Example 1-107, 13-cyclohexyl-3-fluoro-5-[2-(morpholin-4-yl)ethyl]-6,7-dihydro-5H-benzo[5,6][1,4]diazepino[7,1-a]indole-10-carboxylic acid dihydrochloride] had a pIC50 of over 7.00. The compound `Cc1ccc2c(c1)N(CCN1CCCCC1)CCn1c-2c(C2CCCCC2)c2ccc(C(=O)O)cc21` [Example 1-108, 13-cyclohexyl-3-methyl-5-[2-(piperidin-1-yl)ethyl]-6,7-dihydro-5H-benzo[5,6][1,4]diazepino[7,1-a]indole-10-carboxylic acid dihydrochloride] showed a pIC50 of over 7.00.

The compound `O=C(O)c1ccc2c(C3CCCCC3)c3n(c2c1)CCN(CC(=O)N1CCOCC1)c1cc(F)ccc1-3` [Example 1-109, 13-cyclohexyl-3-fluoro-5-[2-(morpholin-4-yl)-2-oxoethyl]-6,7-dihydro-5H-benzo[5,6][1,4]diazepino[7,1-a]indole-10-carboxylic acid monohydrochloride] gave a pIC50 of over 7.00. The compound `CCN1CCN(CCN2CCn3c(c(C4CCCCC4)c4ccc(C(=O)O)cc43)-c3ccc(C)cc32)CC1` [Example 1-110, 13-cyclohexyl-5-[2-(4-ethylpiperazin-1-yl)ethyl]-3-methyl-6,7-dihydro-5H-benzo[5,6][1,4]diazepino[7,1-a]indole-10-carboxylic acid trihydrochloride] gave a pIC50 of over 7.00. The same measure for `O=C(O)c1ccc2c(C3CCCCC3)c3n(c2c1)CCN(CCCN1CCCCC1)c1ccccc1-3` [Example 1-111, 13-cyclohexyl-5-[3-(piperidin-1-yl)propyl]-6,7-dihydro-5H-benzo[5,6][1,4]diazepino[7,1-a]indole-10-carboxylic acid dihydrochloride]: over 7.00; for `O=C(O)c1ccc2c(C3CCCCC3)c3n(c2c1)CCN(CCCO)c1ccccc1-3` [Example 1-112, 13-cyclohexyl-5-(3-hydroxypropyl)-6,7-dihydro-5H-benzo[5,6][1,4]diazepino[7,1-a]indole-10-carboxylic acid monohydrochloride]: over 7.00.

On to `O=C(O)c1ccc2c(C3CCCCC3)c3n(c2c1)CCN(CCN1CCCC(O)C1)c1ccccc1-3` (centres unmarked) [Example 1-113, 13-cyclohexyl-5-[2-(3-hydroxypiperidin-1-yl)ethyl]-6,7-dihydro-5H-benzo[5,6][1,4]diazepino[7,1-a]indole-10-carboxylic acid dihydrochloride], for which the pIC50 was over 7.00.

For the compound `O=C(O)c1ccc2c(C3CCCCC3)c3n(c2c1)CCN(CC(=O)N1CCCCC1)c1cc(F)ccc1-3` [Example 1-114, 13-cyclohexyl-3-fluoro-5-[2-oxo-2-(piperidin-1-yl)ethyl]-6,7-dihydro-5H-benzo[5,6][1,4]diazepino[7,1-a]indole-10-carboxylic acid monohydrochloride], the pIC50 was over 7.00.

With `Cc1ccc2c(c1)N(CC(=O)N1CCCCC1)CCn1c-2c(C2CCCCC2)c2ccc(C(=O)O)cc21` [Example 1-115, 13-cyclohexyl-3-methyl-5-[2-oxo-2-(piperidin-1-yl)ethyl]-6,7-dihydro-5H-benzo[5,6][1,4]diazepino[7,1-a]indole-10-carboxylic acid monohydrochloride], the pIC50 is over 7.00. The same measure for `O=C(O)c1ccc2c(C3CCCCC3)c3n(c2c1)CCN(CCN1CCCCC1)c1cc(F)ccc1-3` [Example 1-116, 13-cyclohexyl-3-fluoro-5-[2-(piperidin-1-yl)ethyl]-6,7-dihydro-5H-benzo[5,6][1,4]diazepino[7,1-a]indole-10-carboxylic acid dihydrochloride]: over 7.00; for `CCN1CCN(C(=O)CN2CCn3c(c(C4CCCCC4)c4ccc(C(=O)O)cc43)-c3ccc(C)cc32)CC1` [Example 1-117, 13-cyclohexyl-5-[2-(4-ethylpiperazin-1-yl)-2-oxoethyl]-3-methyl-6,7-dihydro-5H-benzo[5,6][1,4]diazepino[7,1-a]indole-10-carboxylic acid dihydrochloride]: over 7.00; for `CC(=O)N1CCC(CN2CCn3c(c(C4CCCCC4)c4ccc(C(=O)O)cc43)-c3ccccc32)CC1` [Example 1-118, 5-(1-acetylpiperidin-4-ylmethyl)-13-cyclohexyl-6,7-dihydro-5H-benzo[5,6][1,4]diazepino[7,1-a]indole-10-carboxylic acid monohydrochloride]: over 7.00.

`CC(C)N1CCC(CCN2CCn3c(c(C4CCCCC4)c4ccc(C(=O)O)cc43)-c3ccccc32)CC1` [Example 1-119, 13-cyclohexyl-5-[2-(1-isopropylpiperidin-4-yl)ethyl]-6,7-dihydro-5H-benzo[5,6][1,4]diazepino[7,1-a]indole-10-carboxylic acid dihydrochloride] showed a pIC50 of over 7.00. As for `O=C(O)c1ccc2c(C3CCCCC3)c3n(c2c1)CCN(CC1CCOCC1)c1ccccc1-3` [Example 1-120, 13-cyclohexyl-5-(tetrahydropyran-4-ylmethyl)-6,7-dihydro-5H-benzo[5,6][1,4]diazepino[7,1-a]indole-10-carboxylic acid monohydrochloride], the figure is over 7.00. `CC1CCCN(C(=O)CN2CCn3c(c(C4CCCCC4)c4ccc(C(=O)O)cc43)-c3ccccc32)C1` (centres unmarked) [Example 1-122, 13-cyclohexyl-5-[2-(3-methylpiperidin-1-yl)-2-oxoethyl]-6,7-dihydro-5H-benzo[5,6][1,4]diazepino[7,1-a]indole-10-carboxylic acid monohydrochloride] showed a pIC50 of over 7.00. In the case of `CCN1CCC(=CCN2CCn3c(c(C4CCCCC4)c4ccc(C(=O)O)cc43)-c3ccccc32)CC1` [Example 1-123, 13-cyclohexyl-5-[2-(1-ethylpiperidin-4-ylidene)ethyl]-6,7-dihydro-5H-benzo[5,6][1,4]diazepino[7,1-a]indole-10-carboxylic acid dihydrochloride], the pIC50 is over 7.00.

As to `CC(C)C1CCN(C(=O)CN2CCn3c(c(C4CCCCC4)c4ccc(C(=O)O)cc43)-c3ccccc32)CC1` [Example 1-124, 13-cyclohexyl-5-[2-(4-isopropylpiperidin-1-yl)-2-oxoethyl]-6,7-dihydro-5H-benzo[5,6][1,4]diazepino[7,1-a]indole-10-carboxylic acid monohydrochloride], the pIC50 was over 7.00. The same measure for `COC1CCCN(C(=O)CN2CCn3c(c(C4CCCCC4)c4ccc(C(=O)O)cc43)-c3ccccc32)C1` (centres unmarked) [Example 1-125, 13-cyclohexyl-5-[2-(3-methoxypiperidin-1-yl)-2-oxoethyl]-6,7-dihydro-5H-benzo[5,6][1,4]diazepino[7,1-a]indole-10-carboxylic acid monohydrochloride]: over 7.00. As for `O=C(O)c1ccc2c(C3CCCCC3)c3n(c2c1)CCN(Cc1ccccn1)c1ccccc1-3` [Example 1-126, 13-cyclohexyl-5-(pyridin-2-ylmethyl)-6,7-dihydro-5H-benzo[5,6][1,4]diazepino[7,1-a]indole-10-carboxylic acid dihydrochloride], the figure is over 7.00. As for `CCCS(=O)(=O)NC(=O)c1ccc2c(C3CCCCC3)c3n(c2c1)CCN(CC(=O)N1CCN(CC)CC1)c1ccccc1-3` [Example 1-129, N-{13-cyclohexyl-5-[2-(4-ethylpiperazin-1-yl)-2-oxoethyl]-6,7-dihydro-5H-benzo[5,6][1,4]diazepino[7,1-a]indole-10-carbonyl}propane-1-sulfonamide dihydrochloride], the figure is over 7.00; as for `CCN1CCC(CN2CCn3c(c(C4CCCCC4)c4ccc(C(=O)O)cc43)-c3ccccc32)CC1` [Example 1-130, 13-cyclohexyl-5-(1-ethylpiperidin-4-ylmethyl)-6,7-dihydro-5H-benzo[5,6][1,4]diazepino[7,1-a]indole-10-carboxylic acid], over 7.00; as for `O=C(O)c1ccc2c(C3CCCCC3)c3n(c2c1)CCN(CC(=O)N1CCCCCCC1)c1ccccc1-3` [Example 1-131, 5-[2-(azocan-1-yl)-2-oxoethyl]-13-cyclohexyl-6,7-dihydro-5H-benzo[5,6][1,4]diazepino[7,1-a]indole-10-carboxylic acid], over 7.00.
